Data taken from US20240246964A1 (Arbutus Biopharma Corporation, priority 2021, published 2024).
pEC50, pIC50: −log10 of the molar value.

Key:
[1] = biological target: PD-L1 His protein / PD-1 Fc protein (Homo sapiens (Human), UniProt Q9NZQ7); test: HTRF Assay (PD-1/PD-L1 interaction); format: binding; conditions: PD-L1 His 6 nM, PD-1 Fc 6 nM
human PD-L1 = human PD-L1 (Homo sapiens (Human), UniProt Q9NZQ7); test: T cell activation luciferase reporter cell culture system (T Cell Activation Assay); format: cell-based; conditions: luciferase reporter assay; PD-L1 aAPC/CHO-K1 cells with PD-1 effector Jurkat T cells
Sequence of human PD-L1 (Q9NZQ7 19-290): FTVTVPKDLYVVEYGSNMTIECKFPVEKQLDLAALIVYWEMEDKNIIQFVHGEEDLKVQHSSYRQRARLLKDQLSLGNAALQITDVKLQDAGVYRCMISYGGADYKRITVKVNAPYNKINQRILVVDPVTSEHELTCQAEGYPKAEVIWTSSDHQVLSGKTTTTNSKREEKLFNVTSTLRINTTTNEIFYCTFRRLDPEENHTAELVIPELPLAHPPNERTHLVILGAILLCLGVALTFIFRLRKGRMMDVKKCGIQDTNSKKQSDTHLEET

Sequence of PD-L1 His protein / PD-1 Fc protein (Q9NZQ7 19-238): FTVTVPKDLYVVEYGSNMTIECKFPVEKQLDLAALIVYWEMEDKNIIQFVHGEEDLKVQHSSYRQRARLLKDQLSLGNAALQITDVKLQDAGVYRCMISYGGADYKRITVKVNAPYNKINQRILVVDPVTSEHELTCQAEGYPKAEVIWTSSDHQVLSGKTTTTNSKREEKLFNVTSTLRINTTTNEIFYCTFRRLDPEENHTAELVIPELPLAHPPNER

SMILES | pIC50 [1] | pEC50 (human PD-L1)
COc1cc(-c2nccc(-c3cccc(-c4ccc(CNC5CCN(C(C)=O)CC5)c(OC)n4)c3Cl)c2Cl)ccc1CNC1CCN(S(C)(=O)=O)CC1 [Example 383, 1-(4-(((6-(2-Chloro-3-(3-chloro-2-(3-methoxy-4-(((1-(methylsulfonyl)piperidin-4-yl)amino)methyl)phenyl)pyridin-4-yl)phenyl)-2-methoxypyridin-3-yl)methyl)amino)piperidin-1-yl)ethan-1-one] | 9.00 | 7.84
COc1cc(-c2nccc(-c3cccc(-c4ccc(CN5CC(C)(O)C5)c(OC)n4)c3Cl)c2Cl)ccc1CN1CC(C)(O)C1 [Example 396, 1-((6-(2-Chloro-3-(3-chloro-2-(4-((3-hydroxy-3-methylazetidin-1-yl)methyl)-3-methoxyphenyl)pyridin-4-yl)phenyl)-2-methoxypyridin-3-yl)methyl)-3-methylazetidin-3-ol] | 8.86 | 7.82
COCC(=O)N1CCC(NCc2ccc(-c3nccc(-c4cccc(-c5ccc(CNC6CCN(C(=O)COC)CC6)c(OC)n5)c4Cl)c3Cl)cc2OC)CC1 [Example 397, 1-(4-(((6-(2-Chloro-3-(3-chloro-2-(3-methoxy-4-(((1-(2-methoxyacetyl)piperidin-4-yl)amino)methyl)phenyl)pyridin-4-yl)phenyl)-2-methoxypyridin-3-yl)methyl)amino)piperidin-1-yl)-2-methoxyethan-1-one] | 9.89 | 8.24
COc1cc(-c2nccc(-c3cccc(-c4ccc(CN5CC6(CCC(=O)N6)C5)c(OC)n4)c3Cl)c2Cl)ccc1CN1CC2(CCC(=O)N2)C1 [Example 398, 2-((6-(2-Chloro-3-(3-chloro-2-(3-methoxy-4-((6-oxo-2,5-diazaspiro[3.4]octan-2-yl)methyl)phenyl)pyridin-4-yl)phenyl)-2-methoxypyridin-3-yl)methyl)-2,5-diazaspiro[3.4]octan-6-one] | 9.56 | 8.07
COc1cc(-c2nccc(-c3cccc(-c4ccc(CNC5CCN(C(C)=O)CC5)c(OC)n4)c3C)c2Cl)ccc1CNC1CCN(C(C)=O)CC1 [Example 399, 1-(4-(((6-(3-(2-(4-(((1-acetylpiperidin-4-yl)amino)methyl)-3-methoxyphenyl)-3-chloropyridin-4-yl)-2-methylphenyl)-2-methoxypyridin-3-yl)methyl)amino)piperidin-1-yl)ethan-1-one] | 9.73 | 7.11
COc1cc(-c2nccc(-c3cccc(-c4ccc(CN5CC6(CNC(=O)C6)C5)c(OC)n4)c3Cl)c2Cl)ccc1CN1CCC(NC(C)=O)CC1 [Example 400, N-(1-(4-(3-chloro-4-(2-chloro-3-(6-methoxy-5-((7-oxo-2,6-diazaspiro[3.4]-octan-2-yl)methyl)pyridin-2-yl)-phenyl)pyridin-2-yl)-2-methoxybenzyl)piperidin-4-yl)acetamide] | 9.57 | 7.78
COc1cc(-c2nccc(-c3cccc(-c4ccc(CNC[C@H]5CNC(=O)C5)c(OC)n4)c3Cl)c2Cl)ccc1CNC[C@H]1CNC(=O)C1 [Example 405, (S)-4-((((6-(2-Chloro-3-(3-chloro-2-(3-methoxy-4-(((((S)-5-oxopyrrolidin-3-yl)methyl)amino)methyl)phenyl)pyridin-4-yl)phenyl)-2-methoxypyridin-3-yl)methyl)amino)methyl)pyrrolidin-2-one] | 9.63 | 7.62
COCC(=O)N1CCC(NCc2ccc(-c3nccc(-c4cccc(-c5ccc(CNC6CCN(C(C)=O)CC6)c(OC)n5)c4Cl)c3Cl)cc2OC)CC1 [Example 413, 1-(4-((4-(4-(3-(5-(((1-Acetylpiperidin-4-yl)amino)methyl)-6-methoxypyridin-2-yl)-2-chlorophenyl)-3-chloropyridin-2-yl)-2-methoxybenzyl)amino)piperidin-1-yl)-2-methoxyethan-1-one] | 8.84 | 7.79
COc1cc(-c2nccc(-c3cccc(-c4ccc(CNC[C@@H]5CCC(=O)N5)c(OC)n4)c3Cl)c2C)ccc1CNC[C@@H]1CCC(=O)N1 [Example 414, (S)-5-((((6-(2-Chloro-3-(2-(3-methoxy-4-(((((S)-5-oxopyrrolidin-2-yl)methyl)amino)methyl)phenyl)-3-methylpyridin-4-yl)phenyl)-2-methoxypyridin-3-yl)methyl)amino)methyl)pyrrolidin-2-one] | 8.80 | 7.53
COc1cc(-c2nccc(-c3cccc(-c4ccc(CN5CC6(CNC(=O)C6)C5)c(OC)n4)c3C)c2C)ccc1CN1CC2(CNC(=O)C2)C1 [Example 415, 2-((2-methoxy-6-(3-(2-(3-methoxy-4-((7-oxo-2,6-diazaspiro[3.4]octan-2-yl)methyl)phenyl)-3-methylpyridin-4-yl)-2-methylphenyl)pyridin-3-yl)methyl)-2,6-diazaspiro[3.4]octan-7-one] | 9.60 | 5.29
COc1cc(-c2nccc(-c3cccc(-c4ccc(CN5CC6(C5)CN(C(C)=O)C6)c(OC)n4)c3C)c2C)ccc1CN1CC2(C1)CN(C(C)=O)C2 [Example 416, 1-(6-((6-(3-(2-(4-((6-Acetyl-2,6-diazaspiro[3.3]heptan-2-yl)methyl)-3-methoxyphenyl)-3-methylpyridin-4-yl)-2-methylphenyl)-2-methoxypyridin-3-yl)methyl)-2,6-diazaspiro[3.3]heptan-2-yl)ethan-1-one] | 8.18 | ≤ 5.00
COc1cc(-c2nccc(-c3cccc(-c4ccc(CNC5CCN(C(C)=O)CC5)c(OC)n4)c3Cl)c2Cl)ccc1CNC1CCNCC1 [Example 417, 1-(4-(((6-(2-chloro-3-(3-chloro-2-(3-methoxy-4-((piperidin-4-ylamino)methyl)phenyl)pyridin-4-yl)phenyl)-2-methoxypyridin-3-yl)methyl)amino)piperidin-1-yl)ethan-1-one] | 8.44 | 7.23
COc1cc(-c2nccc(-c3cccc(-c4ccc(CNC5CCN(C(=O)c6ccco6)CC5)c(OC)n4)c3Cl)c2Cl)ccc1CNC1CCN(C(=O)c2ccco2)CC1 [Example 421, (4-(((6-(2-Chloro-3-(3-chloro-2-(4-(((1-(furan-2-carbonyl)piperidin-4-yl)amino)methyl)-3-methoxyphenyl)pyridin-4-yl)phenyl)-2-methoxypyridin-3-yl)methyl)amino)piperidin-1-yl)(furan-2-yl)methanone] | 8.73 | 7.32
COc1cc(-c2nccc(-c3cccc(-c4ccc(CNC5CCN(C(=O)c6ccccc6)CC5)c(OC)n4)c3Cl)c2Cl)ccc1CNC1CCN(C(=O)c2ccccc2)CC1 [Example 422, (4-(((6-(3-(2-(4-(((1-Benzoylpiperidin-4-yl)amino)methyl)-3-methoxyphenyl)-3-chloropyridin-4-yl)-2-chlorophenyl)-2-methoxypyridin-3-yl)methyl)amino)piperidin-1-yl)(phenyl)methanone] | 9.05 | 7.12
COc1cc(-c2nccc(-c3cccc(-c4ccc(CNC5CCN(c6ccccc6)CC5)c(OC)n4)c3Cl)c2Cl)ccc1CNC1CCN(c2ccccc2)CC1 [Example 423, N-((6-(2-Chloro-3-(3-chloro-2-(3-methoxy-4-(((1-phenylpiperidin-4-yl)amino)methyl)phenyl)pyridin-4-yl)phenyl)-2-methoxypyridin-3-yl)methyl)-1-phenylpiperidin-4-amine] | 8.11 | 6.45
COc1cc(-c2nccc(-c3cccc(-c4ccc(CNC5CCN(c6ccncc6)CC5)c(OC)n4)c3Cl)c2Cl)ccc1CNC1CCN(c2ccncc2)CC1 [Example 424, N-((6-(2-Chloro-3-(3-chloro-2-(3-methoxy-4-(((1-(pyridin-4-yl)piperidin-4-yl)amino)methyl)phenyl)pyridin-4-yl)phenyl)-2-methoxypyridin-3-yl)methyl)-1-(pyridin-4-yl)piperidin-4-amine] | 8.44 | 7.06
COc1cc(-c2nccc(-c3cccc(-c4ccc(CNC5CCOCC5)c(OC)n4)c3C)c2C)ccc1CNC1CCOCC1 [Example 425, N-(2-Methoxy-4-(4-(3-(6-methoxy-5-(((tetrahydro-2H-pyran-4-yl)amino)methyl)pyridin-2-yl)-2-methylphenyl)-3-methylpyridin-2-yl)benzyl)tetrahydro-2H-pyran-4-amine] | 8.15 | 6.08
COc1cc(-c2nccc(-c3cccc(-c4ccc(CNC5CCOCC5)c(OC)n4)c3C)c2Cl)ccc1CNC1CCOCC1 [Example 426, N-((6-(3-(3-chloro-2-(3-methoxy-4-(((tetrahydro-2H-pyran-4-yl)amino)methyl)phenyl)pyridin-4-yl)-2-methylphenyl)-2-methoxypyridin-3-yl)methyl)tetrahydro-2H-pyran-4-amine] | 8.37 | 7.01
COc1cc(-c2nccc(-c3cccc(-c4ccc(CNC5CCN(C(C)=O)CC5)c(OC)n4)c3Cl)c2Cl)ccc1CN(C)C1CCOCC1 [Example 427, 1-(4-(((6-(2-chloro-3-(3-chloro-2-(3-methoxy-4-((methyl(tetrahydro-2H-pyran-4-yl)amino)methyl)phenyl)pyridin-4-yl)phenyl)-2-methoxypyridin-3-yl)methyl)amino)piperidin-1-yl)ethan-1-one] | 8.06 | 7.60
COc1cc(-c2nccc(-c3cccc(-c4ccc(CN5CC6(CNC(=O)C6)C5)c(OC)n4)c3F)c2Cl)ccc1CN1CC2(CNC(=O)C2)C1 [Example 438, 2-(4-(3-chloro-4-(2-fluoro-3-(6-methoxy-5-((7-oxo-2,6-diazaspiro[3.4]octan-2-yl)methyl)pyridin-2-yl)phenyl)pyridin-2-yl)-2-methoxybenzyl)-2,6-diazaspiro[3.4]octan-7-one] | 8.51 | 7.23
COc1cc(-c2nccc(-c3cccc(-c4ccc(CNC5CCN(C(C)=O)CC5)c(OC)n4)c3F)c2Cl)ccc1CNC1CCN(C(C)=O)CC1 [Example 439, 1-(4-(((6-(3-(2-(4-(((1-Acetylpiperidin-4-yl)amino)methyl)-3-methoxyphenyl)-3-chloropyridin-4-yl)-2-fluorophenyl)-2-methoxypyridin-3-yl)methyl)amino)piperidin-1-yl)ethan-1-one] | 8.56 | 6.92
